In patent US20260317357A1, “HETEROCYCLIC COMPOUNDS AS STING AGONISTS” (LigaChem Biosciences Inc., priority 2022, published 2026):

Experiments:
hSTING-R232 = target: T1, hSTING-R232 (Homo sapiens, UniProt Q86WV6, H232R); assay: STING agonist activity, THP1 Dual KI-hSTING-R232 IRF luciferase reporter cells; format: cell-based; conditions: 24 hours
T1 construct: host or cells: THP1 Dual KI-hSTING-R232 (STING HAQ gene removed, R232 variant gene introduced)
Description: (§1) In order to evaluate the activity of the STING agonist, reporter cells from Invivogen were used. The cell lines used in the experiment were THP1 Dual™ (InvivoGen #thpd-nfis) expressing the endogenous STING variant HAQ and THP1 Dual™ KI-hSTING-R232 (InvivoGen #thpd-r232/h232) into which the STING R232 or H232 variant gene was injected after removing the STING HAQ gene. The cell lines have a luciferase reporter gene inserted below the IFN regulatory factor (IRF) promoter, and thus the activity of the IFN regulatory factor (IRF) mechanism can be evaluated through luciferase expression.
(§2) The reporter cells were plated at 9.0×10^4 cells/100 μL per well in a 96-well plate using RPMI 1640 medium (Gibco, #22400097) supplemented with 10% heat-inactivated FBS and 1×Antibiotic-Antimycotic (Gibco, #15240062), 10 μg/mL blasticidin (Gibco, #A1113902), and 100 μg/mL Zeocin (Gibco, #R25005). The plated cells were cultured at 37° C., 5% CO2 for 24 hours, and then treated with 100 μL of the serially diluted compound in each well, and then cultured at 37° C., 5% CO2 for 24 hours. After culturing, 20 μL of the cell culture medium was transferred to a 96 well white plate, and QUANTI-Luc™ (InvivoGen #rep-qlcl) was added at 50 µL/well. Using a microplate reader (Perkin Elmer), the value of the luminescence signal increased in the experimental group treated with the drug compared to the control group not treated with the drug was calculated. EC50 values were derived according to the concentration of the compound using GraphPad Prism.

human STING = target: T2, human STING (Homo sapiens, UniProt Q86WV6); assay: Direct binding potency, HUMAN STING WT BINDING KIT (Cisbio); conditions: in vitro
T2 construct: purchased Cisbio #64BDSTGPEG
Text: Additionally, or analysis of direct binding potency of STING agonist compounds described herein to human STING, HUMAN STING WT BINDING KIT (Cisbio, #64BDSTGPEG) was used according to the manufacturer's instruction.

[1] = In vitro cell cytotoxicity in PBMCs (CellTiter-Glo); format: cell-based
Description: PBMCs were also purchased from […]™ (#700025.2). The cells (8.0×10^4 cells per well) were seeded in a flat-bottomed 96-well plate in RPMI 1640 medium (Gibco, #22400097) with 10% heat-inactivated FBS and 1×Antibiotic-Antimycotic (Gibco, #15240062) and rested for 24 hours at 37° C. […] After 72 hours, the cell viability was measured using CellTiter-Glo Luminescent Cell Viability Assay (Promega, #G7573) according to the manufacture's instruction. The signal was detected using an EnVision Xcite multilabel reader and data were analyzed using GraphPad Prism 8 software.
To verify the effect of the STING agonist compounds in normal cell cytotoxicity, the PBMCs were treated with the STING agonist compounds for 3 days and measured the percentage of cell death.

[2] = Pharmacokinetics in Balb/C mouse after single IV dose; format: in vivo; conditions: 1.5 mg/kg; for AUC∞, norm / Cmax, norm: dose-normalized
Description: For in vivo evaluation of STING agonist compounds described herein in naïve Balb/C mouse, single doses of STING agonist compounds were given at 1.5 mg/kg intravenously into female BALB/c mice (Orientbio, South Korea) at 6-8 weeks of age. Pharmacokinetics were studied following injection of the STING agonist compounds into Balb/C mice. Plasma samples were taken at various time points and stored frozen for analysis. The plasma concentrations of the STING agonist compounds at the indicated time points were measured using a LC-MS/MS analysis method.
Briefly, 250 μL of acetonitrile (ACN) solution was added in both 50 µL of sample and 50 µL of plasma containing 10 nM Dextromethorphan (internal standard), and the solutions were mixed vigorously using a vortex mixer for 5 minutes. The samples were then spun down at 14,000 rpm, 4° C. for 5 minutes. 100 μL of supernatants were combined with 100 μL of mobile phase A (0.1% formic acid in water with 5% ACN) and mixed thoroughly. The samples were measured for the STING agonist compounds using a LC-MS/MS (Nexera LC40 (SHIMADZU) and QTRAP4500 (SCIEX)).

hSTING-HAQ = target: T3, hSTING-HAQ (Homo sapiens, UniProt Q86WV6, G230A/H232R/R293Q/R71H); assay: STING agonist activity, THP1 Dual reporter cells expressing endogenous STING variant HAQ; format: cell-based; conditions: IRF luciferase, 24 hours
T3 construct: expressing the endogenous STING variant HAQ; host or cells: THP1 Dual
Description: as §1, §2

hSTING-H232 = target: T4, hSTING-H232 (Homo sapiens, UniProt Q86WV6); assay: STING agonist activity, THP1 Dual reporter cells with STING H232 variant; format: cell-based; conditions: IRF luciferase, 24 hours
T4 construct: host or cells: THP1 Dual KI-hSTING (STING HAQ gene removed, H232 variant gene introduced)
Description: as §1, §2

T2 sequence (Q86WV6 whole entry): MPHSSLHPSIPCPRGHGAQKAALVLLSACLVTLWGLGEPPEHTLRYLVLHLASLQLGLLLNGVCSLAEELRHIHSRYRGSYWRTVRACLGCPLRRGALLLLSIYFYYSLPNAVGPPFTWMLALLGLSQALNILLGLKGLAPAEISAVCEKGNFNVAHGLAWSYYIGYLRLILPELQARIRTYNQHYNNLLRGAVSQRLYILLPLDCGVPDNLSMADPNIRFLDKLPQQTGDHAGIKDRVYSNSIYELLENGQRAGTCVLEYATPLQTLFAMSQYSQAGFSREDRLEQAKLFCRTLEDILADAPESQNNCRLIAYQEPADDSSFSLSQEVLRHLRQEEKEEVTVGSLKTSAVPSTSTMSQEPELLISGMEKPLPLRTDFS
T1 sequence (Q86WV6 whole entry H232R): as the sequence (Q86WV6 whole entry) above, with H232R counted along it
T4 sequence (Q86WV6 whole entry): as the sequence (Q86WV6 whole entry) above
T3 sequence (Q86WV6 whole entry R71H/G230A/H232R/R293Q): as the sequence (Q86WV6 whole entry) above, with R71H, G230A, H232R, R293Q counted along it

| SMILES | EC50 (hSTING-R232) [nM] | other results |
| --- | --- | --- |
| CCn1nc(C)cc1C(=O)Nc1nc2cc(C(N)=O)cc(OC)c2n1C/C=C/Cn1c(NC(=O)c2cc(C)nn2CC)nc2cc(C(N)=O)cc(OC/C=C/CN3CCNCC3)c21 [Compound 23] | 6.43 |  |
| CCn1nc(C)cc1C(=O)Nc1nc2cc(C(N)=O)cc(OC)c2n1C/C=C/Cn1c(NC(=O)c2cc(C)nn2CC)nc2cc(C(N)=O)cc(OC/C=C/CNC(=O)N3CCNCC3)c21 [Compound 147] | 4.03 |  |
| CCn1nc(C)cc1C(=O)Nc1nc2cc(C(N)=O)cc(OC/C=C/Cn3cc(N)cn3)c2n1C/C=C/Cn1c(NC(=O)c2cc(C)nn2CC)nc2cc(C(N)=O)cc(OCCCS(C)(=N)=O)c21 (centres unmarked) [Compound 197] | 8.13 |  |
| CCn1nc(C)cc1C(=O)Nc1nc2cc(C(N)=O)cc(OC)c2n1C/C=C/Cn1c(NC(=O)c2cc(C)nn2CC)nc2cc(C(N)=O)cc(OC/C=C/COC(=O)N(C)CCNC)c21 [Compound 221] | 3.48 |  |
| CCn1nc(C)cc1C(=O)Nc1nc2cc(C(N)=O)cc(OC)c2n1C/C=C/Cn1c(NC(=O)c2cc(C)nn2CC)nc2cc(C(N)=O)cc(OCCCS(C)(=N)=O)c21 (centres unmarked) [Compound 187] | 4.13 |  |
| CCn1nc(C)cc1C(=O)Nc1nc2cc(C(N)=O)cc(OC)c2n1C/C=C/Cn1c(NC(=O)c2cc(C)nn2CC)nc2cc(C(N)=O)cc(OCCCN3CCOCC3)c21 [Comparative #1, reference compound] |  | CC50 at 72 h [1]: 3.3 nM; AUC∞, norm ([2]; n = 3, plasma): 0.66 ± 0.07 kg·h/L; Cmax, norm ([2]; n = 3, plasma): 1.94 ± 0.30 kg/L |
| CCn1nc(C)cc1C(=O)Nc1nc2cc(C(N)=O)cc(OC)c2n1C/C=C/Cn1c(NC(=O)c2cc(C)nn2CC)nc2cc(C(N)=O)cc(OC/C=C\CN3CCNCC3=O)c21 [Compound 43] | 2.81 |  |
| CCc1nc(C)oc1C(=O)Nc1nc2cc(C(N)=O)cnc2n1C/C=C/Cn1c(NC(=O)c2oc(C)nc2CC)nc2cc(C(N)=O)cc(OCCCO)c21 [Comparative #2, reference compound] | 3.39 | EC50 (hSTING-HAQ): 89.4 nM; EC50 (hSTING-H232): 9.5 nM; AUC∞, norm ([2]; n = 3, plasma): 0.05 ± 0.01 kg·h/L; Cmax, norm ([2]; n = 3, plasma): 0.16 ± 0.02 kg/L |
| CCn1nc(C)cc1C(=O)Nc1nc2cc(C(N)=O)cc(OC)c2n1C/C=C/Cn1c(NC(=O)c2cc(C)nn2CC)nc2cc(C(N)=O)cc(OC/C=C/CC3CCNCC3)c21 [Compound 89] | 6.97 |  |
| CCn1nc(C)cc1C(=O)Nc1nc2cc(C(N)=O)cc(OC)c2n1C/C=C/Cn1c(NC(=O)c2cc(C)nn2CC)nc2cc(C(N)=O)cc(OC/C=C/Cn3cc(NCCC(=O)O)cn3)c21 [Compound 175] | 3.96 |  |
| CCn1nc(C)cc1C(=O)Nc1nc2cc(C(N)=O)cc(OC)c2n1C/C=C/Cn1c(NC(=O)c2cc(C)nn2CC)nc2cc(C(N)=O)cc(OC/C=C\CN3CCC(N)CC3)c21 [Compound 38] | 10.3 |  |
| CCc1nc(C)oc1C(=O)Nc1nc2cc(C(N)=O)cc(OC/C=C/Cn3cc(N)cn3)c2n1C/C=C/Cn1c(NC(=O)c2cc(C)nn2CC)nc2cc(C(N)=O)cc(OC)c21 [Compound 222] | 2.72 |  |

Continued by falling EC50 (hSTING-R232), values first:

| EC50 (hSTING-R232) [nM] | SMILES | other results |
| --- | --- | --- |
| 2.6 | CCc1nc(C)sc1C(=O)Nc1nc2cc(C(N)=O)cc(OC/C=C/Cn3cc(N)cn3)c2n1C/C=C/Cn1c(NC(=O)c2cc(C)nn2CC)nc2cc(C(N)=O)cc(OC)c21 [Compound 155] | EC50 (human STING): 0.4 nM |
| 2.25 | CCn1nc(C)cc1C(=O)Nc1nc2cc(C(N)=O)cc(OC)c2n1C/C=C/Cn1c(NC(=O)c2cc(C)nn2CC)nc2cc(C(N)=O)cc(OC/C=C/Cn3cc(CN)nn3)c21 [Compound 139] |  |
| 2.25 | CCn1nc(C)cc1C(=O)Nc1nc2cc(C(N)=O)cc(OC)c2n1C/C=C/Cn1c(NC(=O)c2cc(C)nn2CC)nc2cc(C(N)=O)cc(OC/C=C/[C@@H]3CCCN3)c21 [Compound 120] |  |
| 2.23 | CCn1nc(C)cc1C(=O)Nc1nc2cc(C(N)=O)cc(OC)c2n1C/C=C/Cn1c(NC(=O)c2cc(C)nn2CC)nc2cc(C(N)=O)cc(OC/C=C/CN)c21 [Compound 145] |  |
| 2.21 | CCc1nc(C)oc1C(=O)Nc1nc2cc(C(N)=O)cc(OC/C=C/Cn3cc(N)cn3)c2n1C/C=C/Cn1c(NC(=O)c2cc(C)nn2CC)nc2cc(C(N)=O)cc(OC)c21 [Compound 151] | EC50 (human STING): 0.13 nM |
| 1.75 | CCn1nc(C)cc1C(=O)Nc1nc2cc(C(N)=O)cc(OC)c2n1C/C=C/Cn1c(NC(=O)c2cc(C)nn2CC)nc2cc(C(N)=O)cc(OC/C=C/COc3cccc(N)c3)c21 [Compound 95] |  |
| 1.36 | CCn1nc(C)cc1C(=O)Nc1nc2cc(C(N)=O)cc(OC)c2n1C/C=C/Cn1c(NC(=O)c2cc(C)nn2CC)nc2cc(C(N)=O)cc(OC/C=C/Cn3ncc(CN)n3)c21 [Compound 110] |  |
| 1.17 | CCn1nc(C)cc1C(=O)Nc1nc2cc(C(N)=O)cc(OC)c2n1C/C=C/Cn1c(NC(=O)c2cc(C)nn2CC)nc2cc(C(N)=O)cc(OC/C=C/CNC(=N)N)c21 [Compound 166] |  |
| 1.04 | CCn1nc(C)cc1C(=O)Nc1nc2cc(C(N)=O)cc(OC)c2n1C/C=C/Cn1c(NC(=O)c2cc(C)nn2CC)nc2cc(C(N)=O)cc(OC/C=C/Cn3cc(N)c(C(=O)O)n3)c21 [Compound 164] |  |
| 0.96 | CCn1nc(C)cc1C(=O)Nc1nc2cc(C(N)=O)cc(OC)c2n1C/C=C/Cn1c(NC(=O)c2cc(C)nn2CC)nc2cc(C(N)=O)cc(OC/C=C/Cn3cc(N)c(C(=O)OC)n3)c21 [Compound 163] |  |
| 0.93 | CCn1nc(C)cc1C(=O)Nc1nc2cc(C(N)=O)cc(OC)c2n1C/C=C/Cn1c(NC(=O)c2cc(C)nn2CC)nc2cc(C(N)=O)cc(OC/C=C\CN3CCOCC3)c21 [Compound 33] |  |
| 0.85 | CCn1nc(C)cc1C(=O)Nc1nc2cc(C(N)=O)cc(O)c2n1C/C=C/Cn1c(NC(=O)c2cc(C)nn2CC)nc2cc(C(N)=O)cc(OC/C=C/Cn3cc(N)cn3)c21 [Compound 69] |  |
| 0.7 | CCn1nc(C)cc1C(=O)Nc1nc2cc(C(N)=O)cc(OC)c2n1C/C=C/Cn1c(NC(=O)c2cc(C)nn2CC)nc2cc(C(N)=O)cc(OCC#CCn3cc(N)cn3)c21 [Compound 178] |  |
| 0.69 | CCn1nc(C)cc1C(=O)Nc1nc2cc(C(N)=O)cc(OC)c2n1C/C=C/Cn1c(NC(=O)c2cc(C)nn2CC)nc2cc(C(N)=O)cc(OCC#CCN3CCOCC3)c21 [Compound 48] |  |
| 0.54 | CCn1nc(C)cc1C(=O)Nc1nc2cc(C(N)=O)cc(OC)c2n1C/C=C/Cn1c(NC(=O)c2cc(C)nn2CC)nc2cc(C(N)=O)cc(OC/C=C/CN3CCOCC3)c21 [Compound 13] |  |
| 0.47 | CCn1nc(C)cc1C(=O)Nc1nc2cc(C(N)=O)cc(OC)c2n1C/C=C/Cn1c(NC(=O)c2cc(C)nn2CC)nc2cc(C(N)=O)cc(OC/C=C/Cn3ncc4cc(N)ccc43)c21 [Compound 127] |  |
| 0.33 | CCn1nc(C)cc1C(=O)Nc1nc2cc(C(N)=O)cc(OC)c2n1C/C=C/Cn1c(NC(=O)c2cc(C)nn2CC)nc2cc(C(N)=O)cc(OC/C=C/CN3CCCN3)c21 [Compound 133] | EC50 (human STING): 0.43 nM; AUC(0-inf) ([2]; n = 3, plasma): 950 ± 110 ng·h/mL; AUC(0-t) ([2]; n = 3, plasma): 920 ± 110 ng·h/mL; C0 ([2]; n = 3, plasma): 4500 ± 850 ng/mL; Cmax ([2]; n = 3, plasma): 2650 ± 400 ng/mL; AUC∞, norm ([2]; n = 3, plasma): 0.63 ± 0.07 kg·h/L; Cmax, norm ([2]; n = 3, plasma): 1.76 ± 0.27 kg/L; clearance ([2]; plasma, n = 3): 26.5 mL/min/kg; half-life ([2]; plasma, n = 3): 96.6 ± 1.2 min; Vd ([2]; plasma, n = 3, read-out: VSS): 1.39 ± 0.21 L/kg |
